# Tests used:
# human EP4 receptor = target: T1, human EP4 receptor (Homo sapiens, UniProt P35408); experiment: Binding ability to human EP receptors ([3H]PGE2 displacement), EP4; details: membranes expressing human EP4; [3H]PGE2 1 nM; Cheng-Prusoff; read-out: pKi (M) EP4 (converted)
# T1 construct: expressed in transfected cells
# In short: (§1)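 Membranes from cells stably expressing human EP2, EP3 or EP4 incubated to equilibrium with [3H]PGE2 and compound at 0.1 to 10 000 nM. Non-specific binding defined with 10 uM PGE2; bound label separated by vacuum filtration and quantified by scintillation counting.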
# human EP3 receptor = target: T2, human EP3 receptor (Homo sapiens, UniProt P43115); experiment: Binding ability to human EP receptors ([3H]PGE2 displacement), EP3; details: membranes expressing human EP3; [3H]PGE2 2.5 nM; Cheng-Prusoff; read-out: pKi (M) EP3 (converted)
# T2 construct: expressed in transfected cells
# T2 sequence (P43115 1-390): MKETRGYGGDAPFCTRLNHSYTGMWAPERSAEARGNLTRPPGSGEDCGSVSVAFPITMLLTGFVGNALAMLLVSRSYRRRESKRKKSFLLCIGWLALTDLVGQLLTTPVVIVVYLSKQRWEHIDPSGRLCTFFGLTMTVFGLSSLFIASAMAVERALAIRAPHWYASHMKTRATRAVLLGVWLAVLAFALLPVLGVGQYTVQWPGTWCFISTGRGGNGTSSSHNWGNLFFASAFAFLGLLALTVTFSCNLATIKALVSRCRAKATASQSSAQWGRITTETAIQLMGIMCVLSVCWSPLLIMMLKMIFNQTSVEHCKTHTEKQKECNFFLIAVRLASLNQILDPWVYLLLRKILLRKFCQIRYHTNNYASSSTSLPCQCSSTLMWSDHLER
# In short: as §1
# [1] = target: T3, human EP2 prostanoid receptors (Homo sapiens, UniProt P43116); experiment: Agonist activity at recombinant human EP2 prostanoid receptors (cAMP in HEK-293 clones); format: cell-based; details: for EC50: HEK-293 stably transfected with human EP2, cAMP accumulation, read-out: pEC50 EP2 (converted); for activity (EP2 part): functional classification at EP2
# T3 construct: expressed in transfected cells; host or cells: HEK-293
# T3 sequence (P43116 whole entry): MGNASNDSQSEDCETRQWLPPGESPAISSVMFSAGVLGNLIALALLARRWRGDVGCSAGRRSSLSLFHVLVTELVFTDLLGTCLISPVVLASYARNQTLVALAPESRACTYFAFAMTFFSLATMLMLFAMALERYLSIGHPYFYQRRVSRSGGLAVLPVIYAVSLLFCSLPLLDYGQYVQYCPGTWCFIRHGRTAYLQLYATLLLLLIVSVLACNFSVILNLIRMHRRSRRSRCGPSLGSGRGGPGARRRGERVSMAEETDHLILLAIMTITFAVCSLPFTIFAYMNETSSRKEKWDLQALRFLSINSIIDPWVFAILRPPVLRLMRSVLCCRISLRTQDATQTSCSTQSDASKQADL
# [2] = target: T4, human EP4 prostanoid receptors (Homo sapiens, UniProt P35408); experiment: Antagonist activity at EP4 prostanoid receptors (PGE2-stimulated cAMP in HEK-293 clones); format: cell-based; details: for Kb: HEK-293 stably transfected with human EP4, 30 min pre-incubation before PGE2, Gaddum-Schild, slope of unity, read-out: pA2 EP4 (converted); for activity (EP4 part): functional classification at EP4, second line of the activity cell
# T4 construct: expressed in transfected cells; host or cells: HEK-293
# T4 sequence (P35408 whole entry): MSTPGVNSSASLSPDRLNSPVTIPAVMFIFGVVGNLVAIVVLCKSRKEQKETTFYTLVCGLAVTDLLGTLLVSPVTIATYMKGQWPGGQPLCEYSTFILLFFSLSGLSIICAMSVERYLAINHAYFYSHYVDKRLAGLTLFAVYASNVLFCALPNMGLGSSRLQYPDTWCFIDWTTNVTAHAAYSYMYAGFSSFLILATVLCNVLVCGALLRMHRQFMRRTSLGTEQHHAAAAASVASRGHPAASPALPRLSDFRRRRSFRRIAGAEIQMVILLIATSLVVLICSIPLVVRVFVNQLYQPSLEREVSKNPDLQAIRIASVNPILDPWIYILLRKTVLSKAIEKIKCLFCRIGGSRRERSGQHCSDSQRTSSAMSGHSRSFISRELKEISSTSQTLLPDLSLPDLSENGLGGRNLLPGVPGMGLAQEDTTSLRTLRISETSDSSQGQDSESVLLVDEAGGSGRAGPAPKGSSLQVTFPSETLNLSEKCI
# Method: Culture media was Minimal essential media (MEM), supplemented with 10% foetal bovine serum, 100 U/ml penicillin, […] streptomycin, 2.5 μg/ml fungizone, 2mM glutamine. Cells were cultured to confluency (3-4 days) prior to use. Culture media was removed, and confluent cells washed three times in MEM. […] Cells were then stimulated by the addition of 25 μl of PGE2 or agonists prepared in assay buffer. In antagonist studies, cells were pre-incubated with compounds for 30 minutes prior to PGE2-mediated stimulation Plates were incubated for 15 min at 37° C., before termination of the reaction by the addition of 25 μl 1M HCl. The plate was then frozen at -20° C. overnight before determination of cAMP concentration. Stimulated cAMP levels were determined by radioligand displacement binding. In brief, plates were thawed rapidly in a waterbath, and the samples neutralised by the addition of 25 μl 1M NaOH. 30 μl was transferred to Millipore plates pre-coated with 0.5% Polyethylenimine (PEI). Samples were diluted by addition of 90 μl cAMP determination buffer (50 mM Tris, 5 mM EDTA, pH 7.0). […] 15 μl of 2 nM (final concentration) [^3H] cAMP, and 15 μl of 3'5'-cAMP protein kinase (8 μg/well final concentration) prepared in cAMP determination buffer containing 0.1% BSA, were added to each well. Plates were incubated on ice for 2 hours, before bound and free radiolabel were separated by vacuum filtration harvesting using the Millipore vacuum manifold, using ice cold water as the termination buffer. The sealing mat was removed from the Millipore plates, and the filters allowed to dry overnight. 50 μl Microscint 0 (Packard Bioscience) was added to each well, and the plate counted using the Micro-Beta Trilux topcount ^3H program. cAMP accumulation was determined from the standard curve, and values calculated in pmoles cAMP/well. Antagonists affinities (pA2 values) were determined assuming a slope of unity and the […]-Schild equation, where pA2=log [concentration ratio-1]-log[antagonist].
# human EP2 receptor = target: T5, human EP2 receptor (Homo sapiens, UniProt P43116); experiment: Binding ability to human EP receptors ([3H]PGE2 displacement), EP2; details: membranes expressing human EP2; [3H]PGE2 3 nM; Cheng-Prusoff; read-out: pKi (M) EP2 (converted)
# T5 construct: expressed in transfected cells
# T5 sequence (P43116 whole entry): as the sequence (P43116 whole entry) above
# In short: as §1
# T1 sequence (P35408 whole entry): as the sequence (P35408 whole entry) above
Ki (human EP4 receptor) [M],Ki (human EP3 receptor) [M],EC50 [1] [nM],activity (EP2 part) [1],Kb [2] [nM],activity (EP4 part) [2],Ki (human EP2 receptor) [M],SMILES
< 1e-05,> 1e-05,< 10000,EP2 agonist/,< 10000,EP4 antagonist,< 1e-05,"O=C(O)Cc1ccc(NC(=O)c2ccc(-c3ccccc3)o2)cc1 [Compound 2, {4-[(5-Phenyl-furan-2-carbonyl)-amino]-phenyl}-acetic acid]"
< 1e-05,> 1e-05,< 10000,EP2 agonist/,< 10000,EP4 antagonist,< 1e-05,"O=C(O)c1ccc(CNC(=O)c2ccc(-c3ccccc3)o2)cc1 [Compound 4, 4-{[(5-Phenyl-furan-2-carbonyl)-amino]-methyl}-benzoic acid]"
< 1e-07,> 1e-05,< 100,EP2 agonist/,< 1000,EP4 antagonist,< 1e-07,"O=C(O)Cc1cccc(NC(=O)c2ccc(-c3cc(Cl)cc(Cl)c3)o2)c1 [Compound 26, (3-{[5-(3,5-Dichloro-phenyl)-furan-2-carbonyl]-amino}-phenyl)-acetic acid]"
< 1e-06,> 1e-05,< 100,EP2 agonist/,< 1000,EP4 agonist,< 1e-07,"O=C(O)/C=C/c1cccc(NC(=O)c2ccc(-c3ccccc3)o2)c1 [Compound 61, 3-{3-[(5-Phenyl-furan-2-carbonyl)-amino]-phenyl}-acrylic acid]"
< 1e-06,> 1e-05,< 100,EP2 agonist/,< 1000,EP4 agonist,< 1e-07,"O=C(O)COc1cccc(NC(=O)c2ccc(-c3cccc(Cl)c3)o2)c1 [Compound 66, (3-{[5-(3-Chloro-phenyl)-furan-2-carbonyl]-amino}-phenoxy)-acetic acid]"
< 1e-06,> 1e-05,< 100,EP2 agonist/,< 1000,EP4 antagonist,< 1e-07,"O=C(O)COc1cccc(NC(=O)c2ccc(-c3cc(Cl)cc(Cl)c3)o2)c1 [Compound 68, (3-{[5-(3,5-Dichloro-phenyl)-furan-2-carbonyl]-amino}-phenoxy)-acetic acid]"
< 1e-06,> 1e-05,,EP2 agonist/,,EP4 antagonist,< 1e-07,"O=C(O)/C=C/c1cccc(NC(=O)c2ccc(-c3cccc(Cl)c3)o2)c1 [Compound 69, 3-(3-{[5-(3-Chloro-phenyl)-furan-2-carbonyl]-amino}-phenyl)-acrylic acid]"
< 1e-06,> 1e-05,,EP2 agonist/,,EP4 antagonist,< 1e-07,"O=C(O)/C=C/c1cccc(NC(=O)c2ccc(-c3cc(Cl)cc(Cl)c3)o2)c1 [Compound 70, 3-(3-{[5-(3,5-Dichloro-phenyl)-furan-2-carbonyl]-amino}-phenyl)-acrylic acid]"
< 1e-05,> 1e-05,< 1000,EP2 agonist/,< 1000,EP4 antagonist,< 1e-06,"O=C(O)c1cc2cc(NC(=O)c3ccc(-c4cccc(Cl)c4)o3)ccc2[nH]1 [Compound 72, 5-{[5-(3-Chloro-phenyl)-furan-2-carbonyl]-amino}-1H-indole-2-carboxylic acid]"
< 1e-05,> 1e-05,< 100,EP2 Agonist/,< 10000,EP4 Antagonist,< 1e-07,"O=C(O)CCc1cccc(NC(=O)c2ccc(-c3cccc(Cl)c3)o2)c1 [Compound 125, 3-(3-{[5-(3-Chloro-phenyl)-furan-2-carbonyl]-amino}-phenyl)-propionic acid]"
< 1e-06,> 1e-05,< 100,EP2 Agonist/,< 1000,EP4 Antagonist,< 1e-07,"O=C(O)CCc1cccc(NC(=O)c2ccc(-c3cc(Cl)cc(Cl)c3)o2)c1 [Compound 126, 3-(3-{[5-(3,5-Dichloro-phenyl)-furan-2-carbonyl]-amino}-phenyl)-propionic acid]"
< 1e-06,> 1e-05,< 100,EP2 Agonist/,< 1000,EP4 Antagonist,< 1e-07,"O=C(O)Cc1cccc(NC(=O)c2cccc(-c3cccc(Cl)c3)n2)c1 [Compound 129, (3-{[6-(3-Chloro-phenyl)-pyridine-2-carbonyl]-amino}-phenyl)-acetic acid]"
< 1e-06,> 1e-05,< 100,EP2 Agonist/,< 1000,EP4 Antagonist,< 1e-07,"O=C(O)Cc1cccc(NC(=O)c2cccc(-c3cc(Cl)cc(Cl)c3)n2)c1 [Compound 130, (3-{[6-(3,5-Dichloro-phenyl)-pyridine-2-carbonyl]-amino}-phenyl)-acetic acid]"
< 1e-06,> 1e-05,< 100,EP2 Agonist/,< 100,EP4 Agonist,< 1e-07,"O=C(O)COc1cccc(NC(=O)c2cccc(-c3cc(Cl)cc(Cl)c3)n2)c1 [Compound 133, (3-{[6-(3,5-Dichloro-phenyl)-pyridine-2-carbonyl]-amino}-phenoxy)-acetic acid]"
> 1e-05,> 1e-05,< 100,EP2 Agonist,,,< 1e-07,"O=C(O)COc1cccc(NC(=O)c2cc(-c3cccc(F)c3)ccc2F)c1 [Compound 169, {3-[(4,3′-Difluoro-biphenyl-3-carbonyl)-amino]-phenoxy}-acetic acid]"
< 1e-06,> 1e-05,< 100,EP2 Agonist,,,< 1e-07,"O=C(O)COc1cccc(NC(=O)c2cccc(-c3cccc(F)c3)n2)c1 [Compound 170, (3-{[6-(3-Fluoro-phenyl)-pyridine-2-carbonyl]-amino}-phenoxy)-acetic acid]"
> 1e-05,> 1e-05,< 100,EP2 Agonist,,,< 1e-07,"O=C(O)COc1cccc(NC(=O)c2cc(-c3ccc(F)cc3)ccc2F)c1 [Compound 171, {3-[(4,4′-Difluoro-biphenyl-3-carbonyl)-amino]-phenoxy}-acetic acid]"
> 1e-05,> 1e-05,< 100,EP2 Agonist,,,< 1e-06,"O=C(Nc1cccc(OCc2nnn[nH]2)c1)c1ccc(-c2ccccc2)o1 [Compound 173, 5-Phenyl-furan-2-carboxylic acid [3-(1H-tetrazol-5-ylmethoxy)-phenyl]-amide]"
> 1e-05,> 1e-05,< 1000,EP2 Agonist,,,< 1e-06,"O=C(Nc1cccc(-c2nnn[nH]2)c1)c1ccc(-c2ccccc2)o1 [Compound 177, 5-Phenyl-furan-2-carboxylic acid [3-(1H-tetrazol-5-yl)-phenyl]-amide]"

# — US7326732B2, “EP2 receptor agonists” (Pharmagene Laboratories Limited, priority 2004, dated 2008)
